Measured values published in ChEMBL document CHEMBL4420060, “Combinatorial therapies for the treatment of neoplasias using the opioid growth factor receptor” (2013).
Calls of active or inactive are those of the source. The calls are words filed in the database; no cut-off is given here.

Assays:
MIA PaCa-2 [1] = test: Growth inhibition of human MIAPaCa2 cells assessed as decrease in cell number at 1 uM incubated for 96 hrs by MTS assay relative to control; format: functional
UMSCC1 [2] = test: Growth inhibition of human UM-SCC-1 cells assessed as decrease in cell number at 1 uM by MTS assay relative to control; format: functional, cell-based
MIA PaCa-2 [3] = test: Growth inhibition of human MIAPaCa2 cells assessed as decrease in cell number at 10 uM incubated for 72 hrs in presence of 1 uM OGF by MTS assay relative to control; format: functional
MIA PaCa-2 [4] = test: Growth inhibition of human MIAPaCa2 cells assessed as decrease in cell number at 10 uM incubated for 48 hrs in presence of 1 uM OGF by MTS assay relative to control; format: functional
MIA PaCa-2 [5] = test: Growth inhibition of human MIAPaCa2 cells assessed as decrease in cell number at 1 uM incubated for 48 hrs in presence of 1 uM OGF by MTS assay relative to control; format: functional; settings: MIA PaCa-2, 48 h, read-out: GI
MIA PaCa-2 [6] = test: Growth inhibition of human MIAPaCa2 cells assessed as decrease in cell number at 1 uM incubated for 48 to 96 hrs by MTS assay relative to control; format: functional; parameters: scale not given: the % may be the effect or the level left
MIA PaCa-2 [7] = test: Growth inhibition of human MIAPaCa2 cells assessed as decrease in cell number at 10 uM incubated for 96 hrs in presence of 1 uM OGF by MTS assay relative to control; format: functional
MIA PaCa-2 [8] = test: Growth inhibition of human MIAPaCa2 cells assessed as decrease in cell number at 1 uM incubated for 24 to 96 hrs in presence of 1 uM OGF by MTS assay relative to control; format: functional; parameters: scale not given: the % may be the effect or the level left
MIA PaCa-2 [9] = test: Growth inhibition of human MIAPaCa2 cells assessed as decrease in cell number at 1 uM incubated for 24 hrs in presence of 1 uM OGF by MTS assay relative to control; format: functional; settings: MIA PaCa-2, 24 h, read-out: GI
MIA PaCa-2 [10] = test: Growth inhibition of human MIAPaCa2 cells assessed as decrease in cell number at 10 uM incubated for 24 hrs in presence of 1 uM OGF by MTS assay relative to control; format: functional
MIA PaCa-2 [11] = test: Growth inhibition of human MIAPaCa2 cells assessed as decrease in cell number at 1 uM incubated for 72 hrs in presence of 1 uM OGF by MTS assay relative to control; format: functional; settings: MIA PaCa-2, 72 h, read-out: GI
UMSCC1 [12] = test: Antitumor activity against human UM-SCC-1 cells xenografted in nu/nu mouse assessed as reduction in tumor at 8 mg/kg dosed every other day and co-treated with 10 mg/kg/day OGF measured on 6th day of measurable tumors relative to control; format: functional; parameters: scale not given: the % may be the effect or the level left
UMSCC1 [13] = test: Growth inhibition of human UM-SCC-1 cells assessed as decrease in cell number at 0.1 uM incubated for 96 hrs in presence of 1 uM OGF by MTT assay relative to control; format: functional
UMSCC1 [14] = test: Growth inhibition of human UM-SCC-1 cells assessed as decrease in cell number at 0.01 uM incubated for 48 hrs followed by compound wash out by 50% replacement of media and measured after 48 hrs by MTS assay relative to control; format: functional, cell-based
UMSCC1 [15] = test: Antitumor activity against human UM-SCC-1 cells xenografted in nu/nu mouse assessed as reduction in tumor measured on 6th day of measurable tumors at 8 mg/kg dosed every other day relative to control; format: functional; parameters: scale not given: the % may be the effect or the level left
CAL-27 [16] = test: Growth inhibition of human CAL27 cells assessed as decrease in cell number at 0.0001 uM with drug and media changed daily incubated for 48 hrs by MTS assay relative to control; format: functional; settings: CAL-27, 48 h, read-out: GI
UMSCC1 [17] = test: Growth inhibition of human UM-SCC-1 cells assessed as decrease in cell number at 0.01 uM in presence of 1 uM OGF incubated for 96 hrs by MTS assay relative to control; format: functional
UMSCC1 [18] = test: Antitumor activity against human UM-SCC-1 cells xenografted in nu/nu mouse assessed as latency time for measurable (62.5 mm3) tumors at 8 mg/kg dosed every other day (Rvb <=2 weeks); format: functional
UMSCC1 [19] = test: Antitumor activity against human UM-SCC-1 cells xenografted in nu/nu mouse assessed as mouse mortality at 8 mg/kg dosed every other day measured on day 19 relative to control; format: functional, organism-based
UMSCC1 [20] = test: Induction of apoptosis in human UM-SCC-1 cells assessed as increase in caspse-3 levels at 0.01 uM in presence of 1 uM OGF incubated for 1 to 3 days by flow cytometry; format: functional
UMSCC1 [21] = test: Induction of apoptosis in human UM-SCC-1 cells assessed as increase in caspse-3 levels at 0.01 uM incubated for 1 day by flow cytometry; format: functional, cell-based
UMSCC1 [22] = test: Growth inhibition of human UM-SCC-1 cells assessed as decrease in cell number at 0.01 uM in presence of 1 uM OGF incubated for 48 hrs by MTS assay relative to control; format: functional
UMSCC1 [23] = test: Antitumor activity against human UM-SCC-1 cells xenografted in nu/nu mouse assessed as reduction in tumor at 8 mg/kg dosed every other day and co-treated with 10 mg/kg/day OGF measured on 22nd to 36th day of measurable tumors relative to control; format: functional, organism-based
UMSCC1 [24] = test: Antitumor activity against human UM-SCC-1 cells xenografted in nu/nu mouse assessed as mouse mortality at 8 mg/kg dosed every other day measured on day 40 co-treated with 10 mg/kg/day OGF relative to control; format: functional, organism-based
UMSCC1 [25] = test: Growth inhibition of human UM-SCC-1 cells assessed as decrease in cell number at 0.01 uM incubated for 72 hrs in presence of 1 uM OGF by MTT assay relative to control; format: functional
CAL-27 [26] = test: Growth inhibition of human CAL27 cells assessed as decrease in cell number at 0.0001 uM with drug and media changed daily in presence of 1 uM OGF incubated for 48 hrs by MTS assay relative to control; format: functional
UMSCC1 [27] = test: Induction of apoptosis in human UM-SCC-1 cells assessed as increase in caspse-3 levels at 0.01 uM in presence of 1 uM OGF incubated for 6 days by flow cytometry; format: functional
UMSCC1 [28] = test: Antitumor activity against human UM-SCC-1 cells xenografted in nu/nu mouse assessed as reduction in tumor measured on 22nd to 36th day of measurable tumors at 8 mg/kg dosed every other day relative to control; format: functional, organism-based
UMSCC1 [29] = test: Growth inhibition of human UM-SCC-1 cells assessed as decrease in cell number at 0.01 uM incubated for 96 hrs in presence of 1 uM OGF by MTT assay relative to control; format: functional
[30] = Toxicity in mouse xenografted with human UM-SCC-1 cells assessed as distension of abdomens with associated megacolon at 8 mg/kg dosed every other day by histological analysis; format: organism-based; settings: in vivo
UMSCC1 [31] = test: Antitumor activity against human UM-SCC-1 cells xenografted in nu/nu mouse assessed as latency time for measurable (62.5 mm3) tumors at 8 mg/kg dosed every other day and co-treated with 10 mg/kg/day OGF (Rvb <=2 weeks); format: functional
UMSCC1 [32] = test: Antitumor activity against human UM-SCC-1 cells xenografted in nu/nu mouse assessed as time duration for delay in visible tumor development at 8 mg/kg dosed every other day and co-treated with 10 mg/kg/day OGF relative to control; format: functional
UMSCC1 [33] = test: Growth inhibition of human UM-SCC-1 cells assessed as decrease in cell number at 0.01 uM in presence of 1 uM OGF incubated for 48 hrs followed by compound wash out by 50% replacement of media and measured after 48 hrs by MTS assay relative to control; format: functional, cell-based
UMSCC1 [34] = test: Inhibition of DNA synthesis in human UM-SCC-1 cells assessed as reduction in BrdU incorporation at 0.01 uM in presence of 1 uM OGF incubated for 72 hrs by fluorescence microscopy; format: functional
UMSCC1 [35] = test: Induction of apoptosis in human UM-SCC-1 cells assessed as increase in caspse-3 levels at 0.01 uM incubated for 6 days by flow cytometry; format: functional
[36] = Toxicity in mouse xenografted with human UM-SCC-1 cells assessed as effect on large intestine/cecum/small bowel at 8 mg/kg dosed every other day by histological analysis; format: organism-based; settings: in vivo
UMSCC1 [37] = test: Growth inhibition of human UM-SCC-1 cells assessed as decrease in cell number at 0.01 uM in presence of 1 uM OGF incubated for 72 hrs by MTS assay relative to control; format: functional
[38] = Toxicity in mouse xenografted with human UM-SCC-1 cells assessed as induction of stool hardening at 8 mg/kg dosed every other day by histological analysis; format: organism-based; settings: in vivo
UMSCC1 [39] = test: Antitumor activity against human UM-SCC-1 cells xenografted in nu/nu mouse assessed as reduction in tumor at 8 mg/kg dosed every other day and co-treated with 10 mg/kg/day OGF measured on 4th day of measurable tumors relative to control; format: functional; parameters: scale not given: the % may be the effect or the level left
UMSCC1 [40] = test: Growth inhibition of human UM-SCC-1 cells assessed as decrease in cell number at 0.1 uM incubated for 72 hrs in presence of 1 uM OGF by MTT assay relative to control; format: functional
UMSCC1 [41] = test: Growth inhibition of human UM-SCC-1 cells assessed as decrease in cell number at 0.01 uM in presence of 1 uM OGF and 1 uM opioid antagonist naloxone incubated for 24 to 96 hrs by MTS assay relative to control; format: functional
UMSCC1 [42] = test: Antitumor activity against human UM-SCC-1 cells xenografted in nu/nu mouse assessed as reduction in tumor at 8 mg/kg dosed every other day and co-treated with at 10 mg/kg/day OGF measured on 16th to 20th day of measurable tumors relative to control; format: functional, organism-based

## NC(=O)[C@H](Cc1ccccc1)NC(=O)[C@H](Cc1c[nH]c2ccccc12)NC(=O)[C@@H]1CCCN1C(=O)[C@@H](N)Cc1ccc(O)cc1
MIA PaCa-2 [1]
  growth inhibition (GI): inactive
UMSCC1 [2]
  growth inhibition (GI): inactive

## NC(=O)[C@H](Cc1ccccc1)NC(=O)[C@H](Cc1ccccc1)NC(=O)[C@@H]1CCCN1C(=O)[C@@H](N)Cc1ccc(O)cc1
MIA PaCa-2 [1]
  growth inhibition (GI): inactive
UMSCC1 [2]
  growth inhibition (GI): inactive

## O=c1[nH]cc(F)c(=O)[nH]1 [FLUOROURACIL]
MIA PaCa-2 [3]
  growth inhibition (GI): 39.7%
MIA PaCa-2 [4]
  growth inhibition (GI): 35.7%
MIA PaCa-2 [5]
  inhibition of growth at 1 µM: 22.2%
MIA PaCa-2 [6]
  Activity: 11 - 15%
MIA PaCa-2 [7]
  growth inhibition (GI): 47.4%
MIA PaCa-2 [8]
  Activity: 13 - 30%
MIA PaCa-2 [9]
  inhibition of growth at 1 µM: 13.2%
MIA PaCa-2 [10]
  growth inhibition (GI): 21.5%
MIA PaCa-2 [11]
  inhibition of growth at 1 µM: 23.6%

## CC(=O)O[C@H]1C(=O)[C@@]2(C)[C@H]([C@H](OC(=O)c3ccccc3)[C@]3(O)C[C@H](OC(=O)[C@H](O)[C@@H](NC(=O)c4ccccc4)c4ccccc4)C(C)=C1C3(C)C)[C@]1(OC(C)=O)CO[C@@H]1C[C@@H]2O [PACLITAXEL]
UMSCC1 [12]
  Activity: 29 - 33%
UMSCC1 [13]
  growth inhibition (GI): 78.4%
UMSCC1 [14]
  growth inhibition (GI): Active
UMSCC1 [15]
  Activity: 29 - 33%
CAL-27 [16]
  inhibition of growth at 0.0001 µM: 22 to 35%
UMSCC1 [17]
  growth inhibition (GI): 69%
UMSCC1 [18]
  Time: <=12 day
UMSCC1 [19]
  Activity: inactive
UMSCC1 [20]
  fold change (FC): 5.6
UMSCC1 [21]
  Activity: inactive
UMSCC1 [22]
  growth inhibition (GI): 48%
UMSCC1 [23]
  Activity: Active
UMSCC1 [24]
  Activity: Active
UMSCC1 [25]
  growth inhibition (GI): 30.6%
CAL-27 [26]
  growth inhibition (GI): 61%
UMSCC1 [27]
  fold change (FC): 13.9
UMSCC1 [28]
  Activity: inactive
UMSCC1 [29]
  growth inhibition (GI): 36.3%
[30]
  Activity: Toxic
UMSCC1 [31]
  Time: 17 days
UMSCC1 [32]
  Time: 4 days
UMSCC1 [33]
  growth inhibition (GI): Active
UMSCC1 [34]
  inhibition (INH): 16%
UMSCC1 [35]
  fold change (FC): 2.7
[36]
  Activity: Toxic
UMSCC1 [37]
  growth inhibition (GI): 63%
[38]
  Activity: Toxic
UMSCC1 [39]
  Activity: 29%
UMSCC1 [40]
  growth inhibition (GI): 68.4%
UMSCC1 [41]
  growth inhibition (GI): 8.8 - 26%
UMSCC1 [42]
  Activity: Active
